Source: patent US4963541A, “Pyrimido-pyrimidine lipoxygenase inhibiting compounds” (Abbott Laboratories, priority 1989, dated 1990)

What was measured:
5-lipoxygenase [1] = target: T1, 5-lipoxygenase (Rattus norvegicus, UniProt P12527); assay: Inhibition of 5-lipoxygenase activity (20,000x g supernatant from homogenized RBL-1 cells); assay type: biochemical; settings: In vitro, 20,000x g supernatant from homogenized RBL-1 cells
T1 construct: 20,000x g supernatant from homogenized RBL-1 cells; endogenous in cells; host or cells: RBL-1 cells (20,000x g supernatant of homogenate)
T1 sequence (P12527 1-673): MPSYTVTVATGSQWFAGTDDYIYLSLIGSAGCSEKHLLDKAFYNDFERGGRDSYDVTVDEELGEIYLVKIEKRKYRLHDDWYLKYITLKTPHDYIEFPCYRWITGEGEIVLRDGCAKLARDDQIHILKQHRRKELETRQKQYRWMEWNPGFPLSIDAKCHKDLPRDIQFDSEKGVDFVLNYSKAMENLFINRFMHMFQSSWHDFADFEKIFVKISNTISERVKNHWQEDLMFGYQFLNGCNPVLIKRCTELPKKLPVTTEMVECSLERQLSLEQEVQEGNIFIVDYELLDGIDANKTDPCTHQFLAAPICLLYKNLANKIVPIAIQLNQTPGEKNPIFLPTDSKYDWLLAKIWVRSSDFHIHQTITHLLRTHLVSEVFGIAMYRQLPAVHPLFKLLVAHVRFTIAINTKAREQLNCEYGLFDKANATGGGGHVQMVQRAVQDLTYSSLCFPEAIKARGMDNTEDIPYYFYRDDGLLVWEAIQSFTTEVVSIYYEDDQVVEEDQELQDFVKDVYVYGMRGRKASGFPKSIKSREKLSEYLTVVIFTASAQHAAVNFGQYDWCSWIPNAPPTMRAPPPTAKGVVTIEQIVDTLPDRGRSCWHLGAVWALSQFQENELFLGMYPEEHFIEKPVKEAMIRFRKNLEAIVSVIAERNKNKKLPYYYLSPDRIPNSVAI
Description: Inhibition of 5-lipoxygenase activity was determined using the 20,000x g supernatant from homogenized RBL-1 cells in a similar manner as that described by Dyer and coworkers (Dyer, R.D.; Haviv, F,; Hanel, A. M.; Bornemier, D. A.; Carter, G. W. Fed. Proc., Fed. Am. Soc. Exp. Biol. 1984, 43, 1462A). IC50 values (concentration of compound producing 50% enzyme inhibition) were calculated by linear regression analysis of percentage inhibition versus log inhibitor concentration plots.

[2] = Drugs of the Future, 8, 1023, 1983; cited from earlier work
5-lipoxygenase [3] = settings: Young, Dyer, Carter, Federation Proceedings 44(4):904, 1985; cited from earlier work
tumor cell growth = settings: in rats; Ger. Offen. 2931, 573; cited from earlier work

Structure (SMILES) | IC50 (5-lipoxygenase [1]) | other results
CCN(CC)c1nc(N(CCO)CCOC)nc2c(N(CC)CC)nc(N(CCO)CCOC)nc12 [2,6-bis-(2-hydroxyethyl-2-methoxyethylamino)-4,8-bis-(diethylamino)pyrimido[5,4-d]pyrimidine] | – | reported to be a hypertensive agent [2]: hypertensive agent
CN(CCO)c1nc(N2CCCCCCC2)c2nc(N(C)CCO)nc(N3CCCCCCC3)c2n1 [Example 4, 2,6-bis-2-(Methylamino)ethanol-4,8-bis-N-perhydroazocinepyrimido[5,4-d]pyrimidine] | 920 nM | –
OCCN(CCO)c1nc(N2CCCCC2)c2nc(N(CCO)CCO)nc(N3CCCCC3)c2n1 [dipyridamole, 2,6-bis-(diethanolamino)-4,8-dipiperidinopyrimido[5,4-d]pyrimidine] | – | reported to be an inhibitor of 5-lipoxygenase (5-lipoxygenase [3]): inhibitor of 5-lipoxygenase
OCCN(CCO)c1nc(N2CCCCC2)c2nc(N(CCO)CCO)ncc2n1 [2,6-bis-(diethanolamino)-4-piperidinopyrimido[5,4d]pyridimine] | – | inhibit tumor cell growth (tumor cell growth): shown to inhibit tumor cell growth in rats

Further lines, with some results ahead:

IC50 (5-lipoxygenase [1]) | Structure (SMILES) | other results
2900 nM | OCCNc1nc(N2CCCCC2)c2nc(NCCO)nc(N3CCCCC3)c2n1 [Example 2, 2,6-bis-Aminoethanol-4,8-bis-N-piperidinopyrimido[5,4-d]pyrimidine] | –
340 nM | CN(CCO)c1nc(N2CCCCC2)c2nc(N(C)CCO)nc(N3CCCCC3)c2n1 [Example 1, 2,6-bis-2-(Methylamino)ethanol-4,8-bis-N-piperidinopyrimido[5,4-d]pyrimidine] | –
300 nM | CN(CCO)c1nc(N2CCCCCC2)c2nc(N(C)CCO)nc(N3CCCCCC3)c2n1 [Example 3, 2,6-bis-2-(Methylamino)ethanol-4,8-bis-N-perhydroazepinepyrimido-[5,4-d]pyrimidine] | –
